According to the supplement of paper PMC10627819:

What was measured:
[1] = test system: S. pneumoniae D39V; assay: Bliss interaction score (quartile over a dose matrix) (fitness difference); higher = more antagonism (negative = synergy)
How it was run: (§1)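 The Bliss score is observed minus expected fitness under the product model, reported as quartiles over technical, biological and donor/recipient replicates. Fitness is the OD595 at entry into stationary phase divided by the plate's robust no-drug mean and capped at 1. Single-drug fitness was inferred from combination data.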

[2] = test system: S. aureus Newman; assay: as above
How it was run: as §1

[3] = test system: B. subtilis 168; assay: as above
How it was run: as §1

[4] = test system: S. aureus DSM 20231; assay: as above
How it was run: as §1

[5] = test system: S. pneumoniae D39V; assay: fitness (endpoint OD595 vs no drug) (fraction); higher = more growth
How it was run: (§2)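 Volumes were 30 µl per well, or 55 µl for S. pneumoniae, in 384-well plates inoculated at OD595 0.01. Media were TSB, LB Lennox or CY at 37 °C, and OD595 was read every 30 min for 14 h with first-reading background subtraction. Fitness is the ratio of optical density at stationary-phase entry to the robust mean of no-drug controls. That ratio is capped at 1.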

[6] = test system: S. aureus DSM 20231; assay: as above
How it was run: as §2

[7] = test system: B. subtilis 168; assay: as above
How it was run: as §2
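Wherever Bliss interaction score (quartile over a dose matrix) is given: first quartile when negative (synergy) and third quartile when positive (antagonism).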

CC(=O)NC[C@H]1CN(c2ccc(N3CCOCC3)c(F)c2)C(=O)O1 [Linezolid] + CN[C@H](CC(C)C)C(=O)N[C@H]1C(=O)N[C@@H](CC(N)=O)C(=O)N[C@H]2C(=O)N[C@H]3C(=O)N[C@H](C(=O)N[C@H](C(=O)O)c4cc(O)cc(O)c4-c4cc3ccc4O)[C@H](O)c3ccc(c(Cl)c3)Oc3cc2cc(c3O[C@@H]2O[C@H](CO)[C@@H](O)[C@H](O)[C@H]2O[C@H]2C[C@](C)(N)[C@H](O)[C@H](C)O2)Oc2ccc(cc2Cl)[C@H]1O [Vancomycin]
Conditions	Bliss interaction score
[1]	-0.13
[2]	-0.044
[3]	0.0387
[4]	0.0467

Conditions	fitness
[5], first compound 0.105 µg/mL, partner 0.125 µg/mL	0.689
[5], first compound 0.105 µg/mL, partner 0.25 µg/mL	0.0692
[5], first compound 0.105 µg/mL, partner 0.5 µg/mL	0.0491
[5], first compound 0.2 µg/mL, partner 0.03125 µg/mL	0.77
[5], first compound 0.2 µg/mL, partner 0.0625 µg/mL	0.751
[5], first compound 0.21 µg/mL, partner 0.125 µg/mL	0.573
[5], first compound 0.21 µg/mL, partner 0.25 µg/mL	0.082
[5], first compound 0.21 µg/mL, partner 0.5 µg/mL	0.0299
[5], first compound 0.4 µg/mL, partner 0.03125 µg/mL	0.63
[5], first compound 0.4 µg/mL, partner 0.0625 µg/mL	0.604
[5], first compound 0.42 µg/mL, partner 0.125 µg/mL	0.339
[5], first compound 0.42 µg/mL, partner 0.25 µg/mL	0.0579
[5], first compound 0.42 µg/mL, partner 0.5 µg/mL	0.0734
[5], first compound 0.8 µg/mL, partner 0.03125 µg/mL	0.302
[5], first compound 0.8 µg/mL, partner 0.0625 µg/mL	0.255
[5], first compound 0.8 µg/mL, partner 0.125 µg/mL	0.188
[6], first compound 0.125 µg/mL, partner 0.1875 µg/mL	0.897
[6], first compound 0.125 µg/mL, partner 0.375 µg/mL	0.936
[6], first compound 0.125 µg/mL, partner 0.75 µg/mL	0.943
[6], first compound 0.25 µg/mL, partner 0.1875 µg/mL	0.553
[6], first compound 0.25 µg/mL, partner 0.375 µg/mL	0.596
[6], first compound 0.25 µg/mL, partner 0.75 µg/mL	0.583
[6], first compound 0.5 µg/mL, partner 0.1875 µg/mL	0.204
[6], first compound 0.5 µg/mL, partner 0.375 µg/mL	0.18
[6], first compound 0.5 µg/mL, partner 0.75 µg/mL	0.215

[6], first compound 1 µg/mL, one replicate
Conditions	fitness
partner 0.1875 µg/mL	0.0273
partner 0.375 µg/mL	0.0396
partner 0.75 µg/mL	0.0452

CC(=O)NC[C@H]1CN(c2ccc(N3CCOCC3)c(F)c2)C(=O)O1 [Linezolid] + COc1c(N2C[C@@H]3CCCN[C@@H]3C2)c(F)cc2c(=O)c(C(=O)O)cn(C3CC3)c12 [Moxifloxacin]
Conditions	Bliss interaction score
[1]	0.0972
[2]	0.074
[3]	0.0351
[4]	0.0931

Conditions	fitness
[5], first compound 0.105 µg/mL, partner 0.0037 µg/mL	0.739
[5], first compound 0.105 µg/mL, partner 0.0075 µg/mL	0.741
[5], first compound 0.105 µg/mL, partner 0.015 µg/mL	0.73
[5], first compound 0.2 µg/mL, partner 0.005 µg/mL	0.839
[5], first compound 0.2 µg/mL, partner 0.01 µg/mL	0.858
[5], first compound 0.2 µg/mL, partner 0.02 µg/mL	0.826
[5], first compound 0.21 µg/mL, partner 0.0037 µg/mL	0.647
[5], first compound 0.21 µg/mL, partner 0.0075 µg/mL	0.651
[5], first compound 0.21 µg/mL, partner 0.015 µg/mL	0.624
[5], first compound 0.4 µg/mL, partner 0.005 µg/mL	0.704
[5], first compound 0.4 µg/mL, partner 0.01 µg/mL	0.715
[5], first compound 0.4 µg/mL, partner 0.02 µg/mL	0.68
[5], first compound 0.42 µg/mL, partner 0.0037 µg/mL	0.366
[5], first compound 0.42 µg/mL, partner 0.0075 µg/mL	0.424
[5], first compound 0.42 µg/mL, partner 0.015 µg/mL	0.449
[5], first compound 0.8 µg/mL, partner 0.005 µg/mL	0.45
[5], first compound 0.8 µg/mL, partner 0.02 µg/mL	0.461
[6], first compound 0.125 µg/mL, partner 0.0075 µg/mL	0.795
[6], first compound 0.125 µg/mL, partner 0.015 µg/mL	0.743
[6], first compound 0.125 µg/mL, partner 0.03 µg/mL	0.671
[6], first compound 0.25 µg/mL, partner 0.0075 µg/mL	0.541
[6], first compound 0.25 µg/mL, partner 0.015 µg/mL	0.5
[6], first compound 0.25 µg/mL, partner 0.03 µg/mL	0.582
[6], first compound 0.5 µg/mL, partner 0.0075 µg/mL	0.12
[6], first compound 0.5 µg/mL, partner 0.015 µg/mL	0.178
[6], first compound 0.5 µg/mL, partner 0.03 µg/mL	0.272
[7], first compound 0.125 µg/mL, partner 0.0312 µg/mL	0.0559
[7], first compound 0.125 µg/mL, partner 0.0625 µg/mL	0.0387
[7], first compound 0.125 µg/mL, partner 0.125 µg/mL	0.0364
[7], first compound 0.125 µg/mL, partner 2 µg/mL	0.036
[7], first compound 0.125 µg/mL, partner 4 µg/mL	0.0272
[7], first compound 0.125 µg/mL, partner 8 µg/mL	0.0181
[7], first compound 0.25 µg/mL, partner 0.0312 µg/mL	0.242
[7], first compound 0.25 µg/mL, partner 0.0625 µg/mL	0.0554
[7], first compound 0.25 µg/mL, partner 0.125 µg/mL	0.0577
[7], first compound 0.25 µg/mL, partner 2 µg/mL	0.0241
[7], first compound 0.25 µg/mL, partner 4 µg/mL	0.0237
[7], first compound 0.25 µg/mL, partner 8 µg/mL	0.0144
[7], first compound 0.5 µg/mL, partner 0.0312 µg/mL	0.044
[7], first compound 0.5 µg/mL, partner 0.0625 µg/mL	0.0596
[7], first compound 0.5 µg/mL, partner 0.125 µg/mL	0.0457
[7], first compound 0.5 µg/mL, partner 2 µg/mL	0.0308
[7], first compound 0.5 µg/mL, partner 4 µg/mL	0.021
[7], first compound 0.5 µg/mL, partner 8 µg/mL	0.0223

one replicate
Conditions	fitness
[6], first compound 0.125 µg/mL, partner 0.06 µg/mL	0.712
[6], first compound 0.125 µg/mL, partner 0.12 µg/mL	0.535
[6], first compound 0.25 µg/mL, partner 0.06 µg/mL	0.655
[6], first compound 0.25 µg/mL, partner 0.12 µg/mL	0.536
[6], first compound 0.5 µg/mL, partner 0.06 µg/mL	0.44
[6], first compound 0.5 µg/mL, partner 0.12 µg/mL	0.368
[6], first compound 1 µg/mL, partner 0.0075 µg/mL	0.0168
[6], first compound 1 µg/mL, partner 0.015 µg/mL	0.0282
[6], first compound 1 µg/mL, partner 0.03 µg/mL	0.0258
[7], first compound 0.0625 µg/mL, partner 0.0312 µg/mL	0.0541
[7], first compound 0.0625 µg/mL, partner 0.0625 µg/mL	0.0464
[7], first compound 0.0625 µg/mL, partner 0.125 µg/mL	0.0299
